“Also recorded” adds a separate entry of the source.
Tests used:
[1] = system: monocot bentgrass (Agrostis stolonifera); assay: primary bioassay, bentgrass seeds exposed to 1000 μM solution for 7 days; format: in vivo; details: for growth of bentgrass seedlings: compared to negative controls H2O or 10% acetone
Procedure: The phytotoxic activity of compounds belonging to formula (III), (V), or (VII) classes were evaluated in a primary bioassay. The synthetic triketone herbicides mesotrione and sulcotrione were used as positive controls. The seeds of monocot bentgrass (Agrostis stolonifera) and dicot Arabidopsis (Arabidopsis thaliana) were exposed for 7 days to 1000 μM solution of each chemical. […] Chlorosis of treated seedlings is a common symptom of HPPD enzyme inhibition, and the obtained results are an initial confirmation this mode of action for these new compounds. Next, a detailed assessment of phytotoxic activity of potential herbicide candidates was accomplished by measurement a growth of duckweed (Lemna paucicostata) frond surface (Table 1). Mesotrione and sulcotrione were used as positive controls.
(§1) The synthetic triketone herbicides mesotrione and sulcotrione were used as positive controls. For comparative purposes, water as well as 10% acetone in water were used as negative controls. The seeds of monocot bentgrass (Agrostis stolonifera) and dicot Arabidopsis (Arabidopsis thaliana) were exposed for 7 days to 1000 μM solution of each chemical. […] Chlorosis of treated seedlings is a common symptom of a typical HPPD enzyme inhibition, and the obtained results are an initial confirmation this mode of action for these new compounds.
The synthetic triketone herbicides mesotrione and sulcotrione were used as positive controls. For comparative purposes, water as well as 10% acetone in water were used as negative controls. The seeds of monocot bentgrass (Agrostis stolonifera) and dicot Arabidopsis (Arabidopsis thaliana) were exposed for 7 days to 1000 μM solution of each chemical.
as §1, with “The phytotoxic activity of compounds belonging to formula (VII) (compounds (VII-1) and (VII-2)) was evaluated in a primary bioassay. The synthetic” for “The synthetic”

[2] = system: duckweed (Lemna paucicostata); assay: secondary bioassay, dose-response curve based on growth rate of duckweed frond surface; format: in vivo; details: for IC50: Lemna aequinoctialis, growth rate of duckweed (Lemna paucicostata) frond surface, read-out: IC50 (μM), herbicidal activity in a secondary bioassay; for activity compared with commercial herbicides bentazon, clomazone, glyphosate, glufosinate, asulam, chloropropham and EPTC in the same bioassay: comparison with data of Michel, A., et al. (2004)
Procedure: The phytotoxic activity of compounds belonging to formula (III), (V), or (VII) classes were evaluated in a primary bioassay. […] The seeds of monocot bentgrass (Agrostis stolonifera) and dicot Arabidopsis (Arabidopsis thaliana) were exposed for 7 days to 1000 μM solution of each chemical. […] Next, a detailed assessment of phytotoxic activity of potential herbicide candidates was accomplished by measurement a growth of duckweed (Lemna paucicostata) frond surface (Table 1).
Next, a detailed assessment of the phytotoxic activity of the potential herbicide candidates was done by calculating dose-response curve base on growth rate of duckweed (Lemna paucicostata) frond surface.
Next, a detailed assessment of the phytotoxic activity of the potential herbicide candidates was done by calculating dose-response curves base on growth rate of duckweed (Lemna paucicostata) frond surface.
Next, a detailed assessment of the phytotoxic activity of the potential herbicide candidates was done by calculating dose-response curve based on the growth rate of duckweed (Lemna paucicostata) frond surface.

Row | Compound | chlorosis of bentgrass seedlings [1] | growth of bentgrass seedlings [1] | IC50 [2] [µM] | activity compared with commercial herbicides bentazon, clomazone, glyphosate, glufosinate, asulam, chloropropham and EPTC in the same bioassay [2]
1 | CC1(C)OC(=O)C(=C(O)c2ccc(S(C)(=O)=O)cc2[N+](=O)[O-])C(=O)O1 [III-3, 2,2-dimethyl-5-(4-(methylsulfonyl)-2-nitrobenzoyl)-1,3-dioxane-4,6-dione] | did not develop chlorosis | growth of some of them was reduced |  | 
2 | CC1(C)OC(=O)C(=C(O)c2ccc(S(C)(=O)=O)cc2Cl)C(=O)O1 [III-1, 5-(2-chloro-4-(methylsulfonyl)benzoyl)-2,2-dimethyl-1,3-dioxane-4,6-dione] | did not develop chlorosis | growth of some of them was reduced |  | 
3 | CC(C)CC(O)=C1C(=O)OC2(CCCC2)OC1=O [VII-2, 8-(3-methylbutanoyl)-6,10-dioxaspiro [4.5] decane-7,9-dione] |  |  | 3.3 | 
4 | CC1(C)OC(=O)C(=C(O)c2ccc(C(F)(F)F)cc2[N+](=O)[O-])C(=O)O1 [III-2, 2,2-dimethyl-5-(2-nitro-4-(trifluoromethyl)benzoyl)-1,3-dioxane-4,6-dione] | most of them were chlorotic; also recorded: most of them developed symptoms of chlorosis | significantly impacted growth; also recorded: significantly reduced growth | 1.9 | more active
5 | CCCC1(CCC)OC(=O)C(=C(O)CCc2ccccc2)C(=O)O1 [III-6, 5-(3-phenylpropanoyl)-2,2-dipropyl-1,3-dioxane-4,6-dione] |  |  | 2.6 | more active
6 | O=C1OC2(CCCC2)OC(=O)C1=C(O)CCc1ccccc1 [III-5, 8-(3-phenylpropanoyl)-6, 10-dioxaspiro [4.5] decane-7,9-dione] |  |  | 17.9 | 
7 | CC(C)CC(O)=C1C(=O)OC(C)(C)OC1=O [VII-1, 2,2-dimethyl-5-(3-methylbutanoyl)-1,3-dioxane-4,6-dione] |  |  | 1.14 | 
8 | CC1(C)OC(=O)C(=C(O)CCc2ccccc2)C(=O)O1 [III-4, 2,2-dimethyl-5-(3-phenylpropanoyl)-1,3-dioxane-4,6-dione] |  |  | 13.2 | 

From patent US20250107525A1, “CARBOXYLIC ACID-DERIVED KETO-DIESTERS AND USES THEREOF” (The United States of America, as represented by the …, priority 2023, published 2025)
